Test results from ChEMBL document CHEMBL1127385, “Synthesis and diuretic activity of alkyl- and arylguanidine analogs of N,N'-dicyclohexyl-4-morpholinecarboxamidine in rats and dogs” (J Med Chem, 1994).
Blank lines part the entries; values can stand above or below the compound they belong to.

How the values were obtained:
Rattus norvegicus [1] = assay: Total electrolytic excretion of sodium in urine of rats after peroral administration of 97.1 uM/Kg of drug; type: ADME, organism-based; conditions: in vivo, po
Rattus norvegicus [2] = assay: Tested for the diuretic activity by measuring the urinary volume after peroral administering 32.4 uM/Kg of drug in rats; type: ADME, organism-based, Urine; conditions: in vivo, po
Rattus norvegicus [3] = assay: Ratio of Total electrolytic excretion of sodium and potassium in urine of rats after intravenous administration of 70.6 uM/Kg of drug; type: ADME, organism-based; conditions: in vivo
Rattus norvegicus [4] = assay: Tested for the diuretic activity by measuring the urinary volume after peroral administering 97.1 uM/Kg of drug in rats; type: ADME, organism-based, Urine; conditions: in vivo, po
Rattus norvegicus [5] = assay: Total electrolytic excretion of chlorine in urine of rats after peroral administration of 32.4 uM/Kg of drug; type: ADME, organism-based; conditions: in vivo, po
Rattus norvegicus [6] = assay: Ratio of Total electrolytic excretion of sodium and potassium in urine of rats after peroral administration of 97.1 uM/Kg of drug; type: ADME, organism-based; conditions: in vivo, po
Rattus norvegicus [7] = assay: Total electrolytic excretion of chlorine in urine of rats after peroral administration of 324 uM/Kg of drug; type: ADME, organism-based; conditions: in vivo, po
Rattus norvegicus [8] = assay: Total electrolytic excretion of potassium in urine of rats after peroral administration of 32.4 uM/Kg of drug; type: ADME, organism-based; conditions: in vivo, po
Rattus norvegicus [9] = assay: Total electrolytic excretion of sodium in urine of rats after peroral administration of 32.4 uM/Kg of drug; type: ADME, organism-based; conditions: in vivo, po
Rattus norvegicus [10] = assay: Tested for the diuretic activity by measuring the urinary volume after peroral administering 324 uM/Kg of drug in rats; type: ADME, organism-based, Urine; conditions: in vivo, po
Rattus norvegicus [11] = assay: Total electrolytic excretion of sodium in urine of rats after peroral administration of 324 uM/Kg of drug; type: ADME, organism-based; conditions: in vivo, po
Rattus norvegicus [12] = assay: Ratio of Total electrolytic excretion of sodium and potassium in urine of rats after intravenous administration of 23.5 uM/Kg of drug; type: ADME, organism-based; conditions: in vivo
Rattus norvegicus [13] = assay: Total electrolytic excretion of potassium in urine of rats after peroral administration of 324 uM/Kg of drug; type: ADME, organism-based; conditions: in vivo, po
Rattus norvegicus [14] = assay: Total electrolytic excretion of potassium in urine of rats after peroral administration of 97.1 uM/Kg of drug; type: ADME, organism-based; conditions: in vivo, po
Rattus norvegicus [15] = assay: Ratio of Total electrolytic excretion of sodium and potassium in urine of rats after peroral administration of 32.4 uM/Kg of drug; type: ADME, organism-based; conditions: in vivo, po
Rattus norvegicus [16] = assay: Total electrolytic excretion of chlorine in urine of rats after peroral administration of 97.1 uM/Kg of drug; type: ADME, organism-based; conditions: in vivo, po
Rattus norvegicus [17] = assay: Ratio of Total electrolytic excretion of sodium and potassium in urine of rats after peroral administration of 324 uM/Kg of drug; type: ADME, organism-based; conditions: in vivo, po
Rattus norvegicus [18] = assay: Ratio of Total electrolytic excretion of sodium and potassium in urine of rats after intravenous administration of 52.4 uM/Kg of drug; type: ADME, organism-based; conditions: in vivo
Rattus norvegicus [19] = assay: Total electrolytic excretion of sodium in urine of rats after peroral administration of 86.7 uM/Kg of drug; type: ADME, organism-based; conditions: in vivo, po
Canis familiaris [20] = assay: Tested for the diuretic activity by measuring the urinary volume after intravenous administering 52.4 uM/Kg of drug in dogs; type: ADME, organism-based, Canis lupus familiaris, Urine; conditions: dog, in vivo
Rattus norvegicus [21] = assay: Ratio of Total electrolytic excretion of sodium and potassium in urine of rats after peroral administration of 28.9 uM/Kg of drug; type: ADME, organism-based; conditions: in vivo, po
Canis familiaris [22] = assay: Total electrolytic excretion of potassium in urine of dogs after intravenous administration of 26.2 uM/Kg of drug; type: ADME, organism-based, Canis lupus familiaris; conditions: dog, in vivo
Rattus norvegicus [23] = assay: Total electrolytic excretion of chlorine in urine of rats after peroral administration of 86.7 uM/Kg of drug; type: ADME, organism-based; conditions: in vivo, po
Canis familiaris [24] = assay: Total electrolytic excretion of potassium in urine of dogs after intravenous administration of 7.85 uM/Kg of drug; type: ADME, organism-based, Canis lupus familiaris; conditions: dog, in vivo
Rattus norvegicus [25] = assay: Tested for the diuretic activity by measuring the urinary volume after peroral administering 28.9 uM/Kg of drug in rats; type: ADME, organism-based, Urine; conditions: in vivo, po
Rattus norvegicus [26] = assay: Total electrolytic excretion of chlorine in urine of rats after peroral administration of 28.9 uM/Kg of drug; type: ADME, organism-based; conditions: in vivo, po
Canis familiaris [27] = assay: Total electrolytic excretion of sodium in urine of dogs after intravenous administration of 26.2 uM/Kg of drug; type: ADME, organism-based, Canis lupus familiaris; conditions: dog, in vivo
Rattus norvegicus [28] = assay: Tested for the diuretic activity by measuring the urinary volume after peroral administering 86.7 uM/Kg of drug in rats; type: ADME, organism-based, Urine; conditions: in vivo, po
Canis familiaris [29] = assay: Total electrolytic excretion of sodium in urine of dogs after intravenous administration of 52.4 uM/Kg of drug; type: ADME, organism-based, Canis lupus familiaris; conditions: dog, in vivo
Rattus norvegicus [30] = assay: Total electrolytic excretion of chlorine in urine of rats after peroral administration of 289 uM/Kg of drug; type: ADME, organism-based; conditions: in vivo, po
Rattus norvegicus [31] = assay: Total electrolytic excretion of potassium in urine of rats after peroral administration of 86.7 uM/Kg of drug; type: ADME, organism-based; conditions: in vivo, po
Canis familiaris [32] = assay: Tested for the diuretic activity by measuring the urinary volume after intravenous administering 26.2 uM/Kg of drug in dogs; type: ADME, organism-based, Canis lupus familiaris, Urine; conditions: dog, in vivo
Rattus norvegicus [33] = assay: Ratio of Total electrolytic excretion of sodium and potassium in urine of rats after intravenous administration of 26.2 uM/Kg of drug; type: ADME, organism-based; conditions: in vivo
Rattus norvegicus [34] = assay: Total electrolytic excretion of sodium in urine of rats after peroral administration of 28.9 uM/Kg of drug; type: ADME, organism-based; conditions: in vivo, po
Rattus norvegicus [35] = assay: Tested for the diuretic activity by measuring the urinary volume after peroral administering 289 uM/Kg of drug in rats; type: ADME, organism-based, Urine; conditions: in vivo, po
Canis familiaris [36] = assay: Total electrolytic excretion of chlorine in urine of dogs after intravenous administration of 7.85 uM/Kg of drug; type: ADME, organism-based, Canis lupus familiaris; conditions: dog, in vivo
Rattus norvegicus [37] = assay: Ratio of Total electrolytic excretion of sodium and potassium in urine of rats after peroral administration of 289 uM/Kg of drug; type: ADME, organism-based; conditions: in vivo, po
Canis familiaris [38] = assay: Total electrolytic excretion of chlorine in urine of dogs after intravenous administration of 26.2 uM/Kg of drug; type: ADME, organism-based, Canis lupus familiaris; conditions: dog, in vivo
Canis familiaris [39] = assay: Total electrolytic excretion of potassium in urine of dogs after intravenous administration of 52.4 uM/Kg of drug; type: ADME, organism-based, Canis lupus familiaris; conditions: dog, in vivo
Rattus norvegicus [40] = assay: Total electrolytic excretion of potassium in urine of rats after peroral administration of 28.9 uM/Kg of drug; type: ADME, organism-based; conditions: in vivo, po
Rattus norvegicus [41] = assay: Total electrolytic excretion of sodium in urine of rats after peroral administration of 289 uM/Kg of drug; type: ADME, organism-based; conditions: in vivo, po
Canis familiaris [42] = assay: Ratio of mean of 5 hr urinary excretion of Na+ and K+ from dogs at 7.85 umol/kg (iv); type: ADME, organism-based, Canis lupus familiaris, Urine; conditions: dog, in vivo
Canis familiaris [43] = assay: Total electrolytic excretion of chlorine in urine of dogs after intravenous administration of 52.4 uM/Kg of drug; type: ADME, organism-based, Canis lupus familiaris; conditions: dog, in vivo
Rattus norvegicus [44] = assay: Total electrolytic excretion of potassium in urine of rats after peroral administration of 289 uM/Kg of drug; type: ADME, organism-based; conditions: in vivo, po
Canis familiaris [45] = assay: Tested for the diuretic activity by measuring the urinary volume after intravenous administering 7.85 uM/Kg of drug in dogs; type: ADME, organism-based, Canis lupus familiaris, Urine; conditions: dog, in vivo
Canis familiaris [46] = assay: Total electrolytic excretion of sodium in urine of dogs after intravenous administration of 7.85 uM/Kg of drug; type: ADME, organism-based, Canis lupus familiaris; conditions: dog, in vivo
Rattus norvegicus [47] = assay: Ratio of Total electrolytic excretion of sodium and potassium in urine of rats after peroral administration of 86.7 uM/Kg of drug; type: ADME, organism-based; conditions: in vivo, po

- Excretion Na+ (Rattus norvegicus [1]): 1.13 m equiv
- V (Rattus norvegicus [2]): 5.4 mL
- Ratio (Rattus norvegicus [3]): 29.5
- V (Rattus norvegicus [4]): 7.3 mL
- Excretion Cl- (Rattus norvegicus [5]): 0.86 m equiv
- Ratio (Rattus norvegicus [6]): 3.6
- Excretion Cl- (Rattus norvegicus [7]): 1.94 m equiv
- Excretion K+ (Rattus norvegicus [8]): 0.33 m equiv
- Excretion Na+ (Rattus norvegicus [9]): 0.77 m equiv
- V (Rattus norvegicus [10]): 13.8 mL
- Excretion Na+ (Rattus norvegicus [11]): 2.25 m equiv
- Ratio (Rattus norvegicus [12]): 16.4
- Excretion K+ (Rattus norvegicus [13]): 0.42 m equiv
- Excretion K+ (Rattus norvegicus [14]): 0.31 m equiv
- Ratio (Rattus norvegicus [15]): 2.4
- Excretion Cl- (Rattus norvegicus [16]): 1.14 m equiv
- Ratio (Rattus norvegicus [17]): 5.4
SMILES: c1ccc(C/N=C(/NCc2ccccc2)N2CCOCC2)cc1

- Ratio (Rattus norvegicus [18]): 12
- Excretion Na+ (Rattus norvegicus [19]): 1.58 m equiv
- V (Canis familiaris [20]): 218 mL
- Ratio (Rattus norvegicus [21]): 4.2
- Excretion K+ (Canis familiaris [22]): 2.3 m equiv
- Excretion Cl- (Rattus norvegicus [23]): 1.54 m equiv
- Excretion K+ (Canis familiaris [24]): 1.4 m equiv
- V (Rattus norvegicus [25]): 5.5 mL
- Excretion Cl- (Rattus norvegicus [26]): 0.97 m equiv
- Excretion Na+ (Canis familiaris [27]): 27.9 m equiv
- V (Rattus norvegicus [28]): 9.9 mL
- Excretion Na+ (Canis familiaris [29]): 36 m equiv
- Excretion Cl- (Rattus norvegicus [30]): 1.82 m equiv
- Excretion K+ (Rattus norvegicus [31]): 0.24 m equiv
- V (Canis familiaris [32]): 197 mL
- Ratio (Rattus norvegicus [33]): 15.3
- Excretion Na+ (Rattus norvegicus [34]): 1 m equiv
- V (Rattus norvegicus [35]): 11.3 mL
- Excretion Cl- (Canis familiaris [36]): 7 m equiv
- Ratio (Rattus norvegicus [37]): 7.9
- Excretion Cl- (Canis familiaris [38]): 22.4 m equiv
- Excretion K+ (Canis familiaris [39]): 3.3 m equiv
- Excretion K+ (Rattus norvegicus [40]): 0.24 m equiv
- Excretion Na+ (Rattus norvegicus [41]): 1.86 m equiv
- Ratio (Canis familiaris [42]): 8.8
- Excretion Cl- (Canis familiaris [43]): 28.8 m equiv
- Excretion K+ (Rattus norvegicus [44]): 0.24 m equiv
- V (Canis familiaris [45]): 62 mL
- Excretion Na+ (Canis familiaris [46]): 8.4 m equiv
- Ratio (Rattus norvegicus [47]): 6.6
SMILES: C1CCC(/N=C(\NC23CC4CC(CC(C4)C2)C3)N2CCOCC2)CC1
